The source of these data is ChEMBL document CHEMBL1149539, “Design, synthesis, and biological activity of folate receptor-targeted prodrugs of thiolate histone deacetylase inhibitors” (Bioorg Med Chem Lett, 2007).

SMILES strings stand for the structures. Activity calls are given as the source filed them. The calls are words filed in the database; no cut-off is given here.

One may read the IC50 as the concentration at which inhibition is half-maximal.

Assay [1] deals with Histone deacetylase. Description: Inhibition of HDAC in HeLa cells in presence of DTT after 30 mins by fluorescent activity assay. It counts as cell-based, Homo sapiens.
The target in assay [2] is Histone deacetylase. As to the kind of experiment: Inhibition of HDAC in HeLa cells after 30 mins by fluorescent activity assay. It counts as cell-based, Homo sapiens.
Assay [3] concerns MCF7. Description: Growth inhibition of human MCF7 cells after 72 hrs by Alamar Blue assay. Type of assay: functional, cell-based.
Assay [4] relates to MCF7. As to the kind of experiment: Increase in accumulation of acetylated histone H4 in human MCF7 cells after 14 hrs by Western blot analysis. It counts as functional, cell-based.
Assay [5] concerns MCF7. As to the kind of experiment: Increase in accumulation of acetylated histone H4 in human MCF7 cells in presence of 100 uM folic acid after 14 hrs by Western blot analysis. It counts as functional, cell-based. (Immunoblotting shows a protein as a band on a membrane.)

With `NC1=NC(=O)C2N=C(CNc3ccc(C(=O)N[C@@H](CCC(=O)NCCCCCCSSCCCCCCNC(=O)CC[C@H](NC(=O)c4ccc(NCC5=NC6C(=O)N=C(N)N=C6N=C5)cc4)C(=O)O)C(=O)O)cc3)C=NC2=N1` (some centres not stated), the IC50 on Histone deacetylase [1] was 9 µM.
For `NC1=NC(=O)C2N=C(CNc3ccc(C(=O)N[C@@H](CCC(=O)NCCOCCOCCSSCCCCCCC(=O)Nc4ncc(-c5ccccc5)s4)C(=O)O)cc3)C=NC2=N1` (some centres not stated), the IC50 at Histone deacetylase [1] was 3 µM.
The molecule `NC1=NC(=O)C2N=C(CNc3ccc(C(=O)N[C@@H](CCC(=O)NCCCCCCS)C(=O)O)cc3)C=NC2=N1` (some centres not stated) showed an IC50 at Histone deacetylase [2] of 21 µM.
In the case of `NC1=NC(=O)C2N=C(CNc3ccc(C(=O)N[C@@H](CCC(=O)NCCSSCCCCCCC(=O)Nc4ncc(-c5ccccc5)s4)C(=O)O)cc3)C=NC2=N1` (some centres not stated), on Histone deacetylase [1], the IC50 was 0.27 µM. In addition, in the assay on MCF7 [3], the Activity entry is “Dose-dependent effect”. Also, the result with MCF7 [4] was Active. For the same molecule, the outcome in the assay on MCF7 [5] was inactive.
